{"source": "patent US11999699B2", "about": "“Substituted pyrazole amides” (GRUENENTHAL GMBH, priority 2021, dated 2024)"}
{"target": "T1, human NaV1.8 (Homo sapiens, UniProt Q9Y5Y9)", "T1 construct": "The following NaV1.8 recombinant cell line was used for recordings: HEK-NaV1.8 (NM 006514.1); expressed in transfected cells; host or cells: HEK (recombinant cell line HEK-NaV1.8)", "T1 sequence (Q9Y5Y9 whole entry)": "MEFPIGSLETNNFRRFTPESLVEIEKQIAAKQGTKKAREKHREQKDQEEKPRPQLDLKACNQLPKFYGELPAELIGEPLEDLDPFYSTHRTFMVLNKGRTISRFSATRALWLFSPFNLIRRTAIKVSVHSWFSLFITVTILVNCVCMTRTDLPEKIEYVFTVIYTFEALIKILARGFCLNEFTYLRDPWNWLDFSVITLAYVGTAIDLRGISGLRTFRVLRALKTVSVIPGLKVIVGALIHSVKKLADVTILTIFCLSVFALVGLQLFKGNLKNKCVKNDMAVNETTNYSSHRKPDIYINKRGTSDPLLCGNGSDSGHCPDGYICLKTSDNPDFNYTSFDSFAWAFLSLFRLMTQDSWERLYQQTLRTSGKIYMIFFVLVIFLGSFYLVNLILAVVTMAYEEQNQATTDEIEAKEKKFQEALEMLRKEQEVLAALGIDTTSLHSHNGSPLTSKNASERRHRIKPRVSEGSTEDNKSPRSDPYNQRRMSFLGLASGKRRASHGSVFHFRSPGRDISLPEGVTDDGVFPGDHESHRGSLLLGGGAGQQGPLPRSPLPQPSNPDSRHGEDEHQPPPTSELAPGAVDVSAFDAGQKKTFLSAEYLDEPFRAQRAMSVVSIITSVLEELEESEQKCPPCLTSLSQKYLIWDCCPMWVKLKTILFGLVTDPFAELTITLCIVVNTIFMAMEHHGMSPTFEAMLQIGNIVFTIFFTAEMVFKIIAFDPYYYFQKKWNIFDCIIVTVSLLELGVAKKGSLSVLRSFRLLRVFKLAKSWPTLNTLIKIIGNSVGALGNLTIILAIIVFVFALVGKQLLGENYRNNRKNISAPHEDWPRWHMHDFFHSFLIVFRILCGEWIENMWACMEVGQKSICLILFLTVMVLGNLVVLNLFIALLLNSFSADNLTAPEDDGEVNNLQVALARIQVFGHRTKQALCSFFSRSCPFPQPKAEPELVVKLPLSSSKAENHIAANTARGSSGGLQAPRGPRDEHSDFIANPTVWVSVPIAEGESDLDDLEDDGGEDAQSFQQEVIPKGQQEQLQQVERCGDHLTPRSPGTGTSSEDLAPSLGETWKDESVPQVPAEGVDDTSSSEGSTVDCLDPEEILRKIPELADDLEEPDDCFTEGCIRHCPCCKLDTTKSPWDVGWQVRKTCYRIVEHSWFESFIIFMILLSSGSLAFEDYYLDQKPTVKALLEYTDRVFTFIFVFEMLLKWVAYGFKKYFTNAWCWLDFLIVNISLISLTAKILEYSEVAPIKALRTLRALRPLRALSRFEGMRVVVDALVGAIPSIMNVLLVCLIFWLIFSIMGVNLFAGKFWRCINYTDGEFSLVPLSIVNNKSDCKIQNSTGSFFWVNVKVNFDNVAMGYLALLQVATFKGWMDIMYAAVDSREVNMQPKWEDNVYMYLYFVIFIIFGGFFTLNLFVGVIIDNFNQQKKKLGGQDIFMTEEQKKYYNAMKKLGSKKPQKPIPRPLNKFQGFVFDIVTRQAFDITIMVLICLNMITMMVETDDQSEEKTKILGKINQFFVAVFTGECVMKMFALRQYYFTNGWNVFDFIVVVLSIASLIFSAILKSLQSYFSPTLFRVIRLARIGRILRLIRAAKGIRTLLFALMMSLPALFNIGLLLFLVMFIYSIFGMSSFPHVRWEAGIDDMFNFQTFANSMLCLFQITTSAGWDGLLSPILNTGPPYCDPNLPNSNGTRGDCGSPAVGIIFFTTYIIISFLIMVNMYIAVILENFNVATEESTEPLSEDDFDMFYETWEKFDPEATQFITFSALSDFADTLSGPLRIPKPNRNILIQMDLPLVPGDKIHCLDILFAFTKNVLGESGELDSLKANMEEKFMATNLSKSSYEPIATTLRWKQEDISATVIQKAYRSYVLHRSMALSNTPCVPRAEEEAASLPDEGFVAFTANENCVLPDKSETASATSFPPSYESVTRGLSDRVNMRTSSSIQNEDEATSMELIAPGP", "T1 sequence (Q9NY72 23-215 partner)": "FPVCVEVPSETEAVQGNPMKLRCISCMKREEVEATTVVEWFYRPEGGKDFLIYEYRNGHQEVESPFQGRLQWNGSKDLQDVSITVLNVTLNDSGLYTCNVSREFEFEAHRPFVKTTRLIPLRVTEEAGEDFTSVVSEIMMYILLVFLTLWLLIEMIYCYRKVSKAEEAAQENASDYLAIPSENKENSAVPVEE", "assay": "Electrophysiology: automated whole-cell voltage-clamp (patch clamp, Qube384) recordings of sodium currents in HEK-NaV1.8 cells", "assay_type": "cell-based", "settings": "potency data either taken from inactivated or resting state, read-out: Potency category (human NaV1.8 IC50)", "outline": "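Automated whole-cell patch clamp at room temperature on HEK cells expressing human NaV1.8, with 0.3% DMSO vehicle controls. State-dependent protocol from −120 mV tested resting (P1) and half-inactivated (P2, 4 s at V1/2) channels, plus 40-pulse trains at 10 and 20 Hz. Values after ~12 min compound exposure were normalised to baseline and corrected for vehicle run-down; IC50 from a 4-parameter logistic fit, taken from inactivated or resting state.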", "units": {"IC50": "nM"}}
{"smiles": "CS(=O)(=O)n1cc(NC(=O)c2c(C(F)(F)F)cnn2CC2CCCCC2)cn1", "note": "[SC-36, 2-(cyclohexylmethyl)-N-(1-methylsulfonylpyrazol-4-yl)-4-(trifluoromethyl)pyrazole-3-carboxamide]", "IC50": "100 to 1000"}
{"smiles": "Cc1cnn(CC2CCCCC2)c1C(=O)Nc1cccc(S(C)(=O)=O)c1", "note": "[SC-37, 2-(cyclohexylmethyl)-4-methyl-N-(3-methylsulfonylphenyl)pyrazole-3-carboxamide]", "IC50": "1000 to 10000"}
{"smiles": "CS(=O)(=O)c1cccc(NC(=O)c2cc(C#N)nn2CC2CCCCC2)c1", "note": "[SC-38, 5-cyano-2-(cyclohexylmethyl)-N-(3-methylsulfonylphenyl)pyrazole-3-carboxamide]", "IC50": "100 to 1000"}
{"smiles": "NC(=O)c1cc(NC(=O)c2c(C(F)(F)F)cnn2CC2CCC(F)(F)CC2)ccc1F", "note": "[SC-39, N-(3-carbamoyl-4-fluorophenyl)-2-[(4,4-difluorocyclohexyl)methyl]-4-(trifluoromethyl)pyrazole-3-carboxamide]", "IC50": "100 to 1000"}
{"smiles": "NC(=O)c1cccc(NC(=O)c2c(C(F)(F)F)cnn2CC2CCC(F)(F)CC2)c1", "note": "[SC-41, N-(3-carbamoylphenyl)-2-[(4,4-difluorocyclohexyl)methyl]-4-(trifluoromethyl)pyrazole-3-carboxamide]", "IC50": "100 to 1000"}
{"smiles": "CS(=O)(=O)c1cc(F)cc(NC(=O)c2c(C(F)(F)F)cnn2CC2CCC(F)(F)CC2)c1", "note": "[SC-42, 2-[(4,4-difluorocyclohexyl)methyl]-N-(3-fluoro-5-methylsulfonylphenyl)-4-(trifluoromethyl)pyrazole-3-carboxamide]", "IC50": "1000 to 10000"}
{"smiles": "NS(=O)(=O)c1cccc(NC(=O)c2c(C(F)(F)F)cnn2CC2CCC(F)(F)CC2)c1", "note": "[SC-43, 2-[(4,4-difluorocyclohexyl)methyl]-N-(3-sulfamoylphenyl)-4-(trifluoromethyl)pyrazole-3-carboxamide]", "IC50": "100 to 1000"}
{"smiles": "Cc1nn(CC2CCC(F)(F)CC2)c(C(=O)Nc2cccc(S(C)(=O)=O)c2)c1C", "note": "[SC-44, 2-[(4,4-difluorocyclohexyl)methyl]-4,5-dimethyl-N-(3-methylsulfonylphenyl)pyrazole-3-carboxamide]", "IC50": "100 to 1000"}
{"smiles": "Cc1nn(CC2CCOCC2)c(C(=O)Nc2cccc(S(N)(=O)=O)c2)c1C", "note": "[SC-45, 3,4-dimethyl-N-(3-sulfamoylphenyl)-1-((tetrahydro-2H-pyran-4-yl)methyl)-1H-pyrazole-5-carboxamide]", "IC50": "1000 to 10000"}
{"smiles": "CS(=O)(=O)n1cc(NC(=O)c2c(C(F)(F)F)cnn2CC2CCCCC2)c2cccnc21", "note": "[SC-53, 1-(cyclohexylmethyl)-N-(1-(methylsulfonyl)-1H-pyrrolo[2,3-b]pyridin-3-yl)-4-(trifluoromethyl)-1H-pyrazole-5-carboxamide]", "IC50": "≤ 100"}
{"smiles": "Cc1nn(CC2CCC(F)(F)CC2)c(C(=O)Nc2ccnc(C(N)=O)c2)c1C(F)(F)F", "note": "[SC-84, 4-(1-((4,4-difluorocyclohexyl)methyl)-3-methyl-4-(trifluoromethyl)-1H-pyrazole-5-carboxamido)picolinamide]", "IC50": "≤ 100"}
{"smiles": "CC1CC(Cn2nc(C3CC3)c(C(F)(F)F)c2C(=O)Nc2ccnc(C(N)=O)c2)CCO1", "note": "(stereo not shown) [SC-135, 4-(3-cyclopropyl-1-((2-methyltetraliydro-2H-pyran-4-yl)methyl)-4-(trifluoromethyl)-1H-pyrazole-5-carboxamido)picolinamide]", "IC50": "≤ 100"}
{"smiles": "NC(=O)c1cc(NC(=O)c2c(C(F)(F)F)c(C3CC3)nn2CC2CCCCO2)ccc1F", "note": "(stereo not shown) [SC-140, N-(3-carbamoyl-4-fluorophenyl)-3-cyclopropyl-1-((tetrahydro-2H-pyran-2-yl)methyl)-4-(trifluoromethyl)-1H-pyrazole-5-carboxamide]", "IC50": "≤ 100"}
{"smiles": "NC(=O)c1cc(NC(=O)c2c(C(F)(F)F)c(C(F)F)nn2CC2CC(F)(F)C2)ccc1F", "note": "[SC-141, N-(3-carbamoyl-4-fluorophenyl)-1-((3,3-difluorocyclobutyl)methyl)-3-(difluoromethyl)-4-(trifluoromethyl)-1H-pyrazole-5-carboxamide]", "IC50": "≤ 100"}
{"smiles": "CC1CCCC(Cn2nc(C3CC3)c(C(F)(F)F)c2C(=O)Nc2ccnc(C(N)=O)c2)O1", "note": "(stereo not shown) [SC-143, 4-(3-cyclopropyl-1-((6-methyltetrahydro-2H-pyran-2-yl)methyl)-4-(trifluoromethyl)-1H-pyrazole-5-carboxamido)picolinamide]", "IC50": "≤ 100"}
{"smiles": "NC(=O)c1cc(NC(=O)c2c(C(F)(F)F)c(C3CC3)nn2CC2CC(F)(F)C2)ccn1", "note": "[SC-144, 4-(3-cyclopropyl-1-((3,3-difluorocyclobutyl)methyl)-4-(trifluoromethyl)-1H-pyrazole-5-carboxamido)picolinamide]", "IC50": "≤ 100"}
{"smiles": "CS(=O)(=O)c1cc(NC(=O)c2c(C(F)(F)F)c(C3CC3)nn2CC2CC(F)(F)C2)ccn1", "note": "[SC-151, 3-cyclopropyl-1-((3,3-difluorocyclobutyl)methyl)-N-(2-(methylsulfonyl)pyridin-4-yl)-4-(trifluoromethyl)-1H-pyrazole-5-carboxamide]", "IC50": "≤ 100"}
{"smiles": "CS(=O)(=O)c1cc(NC(=O)c2c(C(F)F)c(C3CC3)nn2CC2CCOCC2)ccn1", "note": "[SC-153, 3-cyclopropyl-4-(difluoromethyl)-N-(2-(methylsulfonyl)pyridin-4-yl)-1-((tetrahydro-2H-pyran-4-yl)methyl)-1H-pyrazole-5-carboxamide]", "IC50": "≤ 100"}
{"smiles": "CC(C)Oc1nn(CC2CCC(F)(F)C2)c(C(=O)Nc2ccnc(C(N)=O)c2)c1C(F)(F)F", "note": "(stereo not shown) [SC-155, 4-(1-((3,3-difluorocyclopentyl)methyl)-3-isopropoxy-4-(trifluoromethyl)-1H-pyrazole-5-carboxamido)picolinamide]", "IC50": "≤ 100"}
{"smiles": "CCOc1nn(CC2CCC(F)(F)C2)c(C(=O)Nc2ccnc(C(N)=O)c2)c1C(F)(F)F", "note": "(stereo not shown) [SC-156, 4-(1-((3,3-difluorocyclopentyl)methyl)-3-ethoxy-4-(trifluoromethyl)-1H-pyrazole-5-carboxamido)picolinamide]", "IC50": "≤ 100"}
{"smiles": "NC(=O)c1cc(NC(=O)c2c(C(F)(F)F)c(OC(F)F)nn2C[C@@H]2CCC(F)(F)C2)ccn1", "note": "[SC-158R]", "IC50": "≤ 100"}
{"smiles": "NC(=O)c1cc(NC(=O)c2c(C(F)(F)F)c(OC(F)F)nn2C[C@H]2CCC(F)(F)C2)ccn1", "note": "[SC-158S]", "IC50": "≤ 100"}
{"smiles": "NC(=O)c1cc(NC(=O)c2c(C(F)(F)F)c(C3CC3)nn2CC2CCC2)ccn1", "note": "[SC-159, 4-(1-(cyclobutylmethyl)-3-cyclopropyl-4-(trifluoromethyl)-1H-pyrazole-5-carboxamido)picolinamide]", "IC50": "≤ 100"}
{"smiles": "Cc1c(C(C)(F)F)nn(CC2CC(F)(F)C2)c1C(=O)Nc1ccnc(C(N)=O)c1", "note": "[SC-161, 4-(1-((3,3-difluorocyclobutyl)methyl)-3-(1,1-difluoroethyl)-4-methyl-1H-pyrazole-5-carboxamido)picolinamide]", "IC50": "≤ 100"}
{"smiles": "Cc1c(C(F)F)nn(CC2CCC(F)(F)CC2)c1C(=O)Nc1ccnc(C(N)=O)c1", "note": "[SC-163, 4-(1-((4,4-difluorocyclohexyl)methyl)-3-(difluoromethyl)-4-methyl-1H-pyrazole-5-carboxamido)picolinamide]", "IC50": "≤ 100"}
{"smiles": "Cc1c(C(C)(F)F)nn(CC2CCC(F)(F)C2)c1C(=O)Nc1ccnc(C(N)=O)c1", "note": "(stereo not shown) [SC-167, 4-(1-((3,3-difluorocyclopentyl)methyl)-3-(1,1-difluoroethyl)-4-methyl-1H-pyrazole-5-carboxamido)picolinamide]", "IC50": "≤ 100"}
{"smiles": "CC(C)c1nn(CC2CC(F)(F)C2)c(C(=O)Nc2ccnc(C(N)=O)c2)c1C(F)(F)F", "note": "[SC-170, 4-(1-((3,3-difluorocyclobutyl)methyl)-3-isopropyl-4-(trifluoromethyl)-1H-pyrazole-5-carboxamido)picolinamide]", "IC50": "≤ 100"}
{"smiles": "CCc1nn(CC2CC(F)(F)C2)c(C(=O)Nc2ccnc(C(N)=O)c2)c1C(F)(F)F", "note": "[SC-172, 4-(1-((3,3-difluorocyclobutyl)methyl)-3-ethyl-4-(trifluoromethyl)-1H-pyrazole-5-carboxamido)picolinamide]", "IC50": "≤ 100"}
{"smiles": "CC(F)(F)c1nn(CC2CC(F)(F)C2)c(C(=O)Nc2ccnc(C(N)=O)c2)c1C(F)(F)F", "note": "[SC-180, 4-(1-((3,3-difluorocyclobutyl)methyl)-3-(1,1-difluoroethyl)-4-(trifluoromethyl)-1H-pyrazole-5-carboxamido)picolinamide]", "IC50": "≤ 100"}
{"smiles": "Cc1c([C@@H](C)C(F)(F)F)nn(CC2CC(F)(F)C2)c1C(=O)Nc1ccnc(C(N)=O)c1", "note": "[SC-188a]", "IC50": "100 to 1000"}
{"smiles": "Cc1c([C@H](C)C(F)(F)F)nn(CC2CC(F)(F)C2)c1C(=O)Nc1ccnc(C(N)=O)c1", "note": "[SC-188b]", "IC50": "100 to 1000"}
{"smiles": "Cc1c([C@@H](C)C(F)F)nn(CC2CC(F)(F)C2)c1C(=O)Nc1ccnc(C(N)=O)c1", "note": "[SC-192a]", "IC50": "100 to 1000"}
{"smiles": "Cc1c([C@H](C)C(F)F)nn(CC2CC(F)(F)C2)c1C(=O)Nc1ccnc(C(N)=O)c1", "note": "[SC-192b]", "IC50": "100 to 1000"}
{"smiles": "Cc1c(OC(F)F)nn(CC2CCC(F)(F)C2)c1C(=O)Nc1ccnc(C(N)=O)c1", "note": "(stereo not shown) [SC-196, 4-(1-((3,3-difluorocyclopentyl)methyl)-3-(difluoromethoxy)-4-methyl-1H-pyrazole-5-carboxamido)picolinamide]", "IC50": "≤ 100"}
{"smiles": "Cc1c(C(C)(F)F)nn(CC2(C)CC(F)(F)C2)c1C(=O)Nc1ccnc(C(N)=O)c1", "note": "[SC-208, 4-(1-((3,3-difluoro-1-methylcyclobutyl)methyl)-3-(1,1-difluoroethyl)-4-methyl-1H-pyrazole-5-carboxamido)picolinamide]", "IC50": "≤ 100"}
{"smiles": "Cc1c(C(C)(F)F)nn(CC2(C)CC(F)(F)C2)c1C(=O)Nc1ccnc(S(N)(=O)=O)c1", "note": "[SC-209, 1-((3,3-difluoro-1-methylcyclobutyl)methyl)-3-(1,1-difluoroethyl)-4-methyl-N-(2-sulfamoylpyridin-4-yl)-1H-pyrazole-5-carboxamide]", "IC50": "≤ 100"}
{"smiles": "Cc1c(C(C)(F)F)nn(CC2(C)CC(F)(F)C2)c1C(=O)Nc1ccnc(S(C)(=O)=O)c1", "note": "[SC-210, 1-((3,3-difluoro-1-methyleyclobutyl)methyl)-3-(1,1-difluoroethyl)-4-methyl-N-(2-(methylsulfonyl)pyridin-4-yl)-1H-pyrazole-5-carboxamide]", "IC50": "≤ 100"}
